Values of other authors, collected in patent US20120231150A1, “Digestive Enzyme Inhibitor and Methods of Use” (TATE & LYLE INGREDIENTS AMERICAS, LLC, priority 2011, published 2012).

Tested on: postprandial blood glucose
Conditions: use to control blood sugar levels

## C[C@H]1O[C@H](O[C@H]2[C@H](O)[C@@H](O)[C@@H](O[C@H]3[C@H](O)[C@@H](O)C(O)O[C@@H]3CO)O[C@@H]2CO)[C@H](O)[C@@H](O)[C@@H]1N[C@H]1C=C(CO)[C@@H](O)[C@H](O)[C@H]1O (stereo partly shown) [Acarbose]
  side effects: undesirable side effects such as gas, bloating, diarrhea
